This passage reports MIC results from US9128088B2 (priority 2008, dated 2015).

Experiment in all cases: microbe, parasite or virus in culture
Assay [1] has as its system M. smegmatis mc^2155. In kind it is cell-based, Mycobacterium smegmatis. The note with it: Mycolicibacterium smegmatis.
Assay [2] relates to M. bovis BCG. In kind it is cell-based. Particulars: Mycobacterium tuberculosis variant bovis BCG.
The test system of assay [3] is M. tuberculosis H37Rv. The class given is cell-based. The note with it: Mycobacterium tuberculosis.

≈ marks a conversion by molar mass, not a printed value.

Regarding `NNC(=O)c1ccncc1` [Isoniazid, isoniazid], the MIC came out at 16 µg/mL (≈ 117 µM) in assay [1], 0.05 µg/mL (≈ 0.365 µM) in assay [2] and 0.05 µg/mL (≈ 0.365 µM) in assay [3].
